Experimental data: ChEMBL document CHEMBL1629513, “Synthesis, characterization, antiamoebic activity and cytotoxicity of novel 2-(quinolin-8-yloxy) acetohydrazones and their cyclized products (1,2,3-thiadiazole and 1,2,3-selenadiazole derivatives)” (Eur J Med Chem, 2010)

Legend:
MCF7 = test: Cytotoxicity against human MCF7 cells after 48 hrs by MTT assay; format: cell-based; details: MCF7, 48 h
Entamoeba histolytica = test: Antiamoebic activity against Entamoeba histolytica HM-1:IMSS after 72 hrs by microdilution assay; format: functional, organism-based
[1] = Cytotoxicity against human MCF7 cells assessed as cell viability up to 100 uM after 48 hrs by MTT assay; format: cell-based; details: read-out: Activity
[2] = Cytotoxicity against human MCF7 cells assessed as cell viability at 1.56 to 50 uM after 48 hrs by MTT assay; format: cell-based; details: read-out: Activity

IC50 (Entamoeba histolytica) [µM] | SMILES | IC50 (MCF7) [µM] | viability at 48 h [1] [%] | viability at 48 h, up to 50 µM [2] [%]
0.05 | C/C(=N\NC(=O)COc1cccc2cccnc12)c1ccccn1 | > 100 | 100 | 
0.03 | C/C(=N\NC(=O)COc1cccc2cccnc12)c1ccccc1 | > 100 | 100 | 
0.04 | C/C(=N\NC(=O)COc1cccc2cccnc12)c1ccc(Cl)cc1 | > 100 | 100 | 
0.05 | C/C(=N\NC(=O)COc1cccc2cccnc12)c1ccco1 | > 100 | 100 | 
0.08 | C/C(=N\NC(=O)COc1cccc2cccnc12)c1cccs1 | > 100 | 88 | 
0.04 | C/C(=N\NC(=O)COc1cccc2cccnc12)c1ccc(Br)cc1 | > 100 | 100 | 

Further lines, the compound ahead of its results:

SMILES | IC50 (Entamoeba histolytica) [µM] | IC50 (MCF7) [µM] | viability at 48 h [1] [%] | viability at 48 h, up to 50 µM [2] [%]
Cc1ncc([N+](=O)[O-])n1CCO [METRONIDAZOLE] |  | > 100 | 100 | 
c1csc(-c2c[se]nn2)c1 | 5.28 |  |  | 
c1ccc(-c2c[se]nn2)cc1 | 4.56 |  |  | 
Clc1ccc(-c2csnn2)cc1 | 0.39 | > 100 |  | 
c1coc(-c2csnn2)c1 | 0.23 | 95.1 |  | 
c1csc(-c2csnn2)c1 | 2.25 | 66.9 |  | 
Clc1ccc(-c2c[se]nn2)cc1 | 0.58 | 57.1 | 57 | 66
c1coc(-c2c[se]nn2)c1 | 5.72 |  |  | 
Brc1ccc(-c2csnn2)cc1 | 0.24 | 68.1 | 68 | 
c1ccc(-c2csnn2)nc1 | 5.46 |  |  | 
c1ccc(-c2csnn2)cc1 | 7.46 |  |  | 
c1ccc(-c2c[se]nn2)nc1 | 0.46 | 86.6 |  | 
Brc1ccc(-c2c[se]nn2)cc1 | 2.95 |  |  | 
